In paper PMC3118614 (Biomedical chromatography : BMC, 2010):
Like-named read-outs stand apart in the source and are kept apart here.

Legend:
[1] = ref Rowland et al., 2007; cited from earlier work
[2] = type: in vivo, olive baboons (Papio Anubis)

Cc1cc(=O)[nH]c2c1NC(=O)c1cccnc1N2C1CC1 [2-OHNVP, 2-hydroxynevirapine]
metabolites detected in human plasma (metabolic profile, in words) [1]: major metabolites

Cc1c(O)cnc2c1NC(=O)c1cccnc1N2C1CC1 [3-OHNVP]
metabolites detected in human plasma (metabolic profile, in words) [1]: major metabolites | Cmax (maximum concentration) ([2]; in vivo, po, 5 mg/kg): 11.50 ± 3.63 ng/mL | Cmax (maximum concentration) ([2]; in vivo, po, 10 mg/kg): 19.69 ± 9.94 ng/mL | Cmax (maximum concentration) ([2]; in vivo, po, 400 mg): 16.53 ± 1.10 ng/mL | Cmax (maximum concentration) ([2]; in vivo, po, 800 mg): 72.85 ± 60.37 ng/mL

O=C1Nc2c(C(=O)O)ccnc2N(C2CC2)c2ncccc21 [4-CANVP, nevirapine 4-carboxylic acid]
Cmax (maximum concentration) ([2]; baboon serum, single oral dose of NVP 5 mg/kg, solution formulation, n = 2, mean): 144.90 ± 22.31 ng/mL

Cc1ccnc2c1NC(=O)c1cc(O)cnc1N2C1CC1 [8-OHNVP]
metabolites detected in human plasma (metabolic profile, in words) [1]: low plasma level

O=C1Nc2c(CO)ccnc2N(C2CC2)c2ncccc21 [12-OHNVP]
metabolites detected in human plasma (metabolic profile, in words) [1]: major metabolites | ratio of the plasma level of 12-OHNVP and 4-CANVP ([2]; in vivo, 5 mg/kg): 0.21 | ratio of the plasma level of 12-OHNVP and 4-CANVP ([2]; in vivo, 10 mg/kg): 1.3 | Cmax (maximum concentration) ([2]; in vivo, po, 5 mg/kg): 31.38 ± 10.59 ng/mL | Cmax (maximum concentration) ([2]; in vivo, po, 10 mg/kg): 275.25 ± 126.07 ng/mL | Cmax (maximum concentration) ([2]; in vivo, po, 400 mg): 157.16 ± 7.06 ng/mL | Cmax (maximum concentration) ([2]; in vivo, po, 800 mg): 385.38 ± 346.21 ng/mL
